Assays:
[1] = test system: Tsc2−/− Mouse Embryonic Fibroblast (MEF) cell lines; test: Wound healing assay in Tsc2−/− MEFs; assay type: cell-based; details: CBD at 10 and 20 μM; FIG. 1 (A)
Protocol: (ii) Tsc2−/− p53−/− and Tsc2+/+p53−/− mouse embryonic fibroblast (MEF) cell lines (now referred to as Tsc2−/− and Tsc2+/+, respectively).
(§1) Tsc2−/− and Tsc2+/+ cell lines were cultured and maintained in DMEM supplemented with 10% (v/v) FBS and 1% (v/v) penicillin-streptomycin in a humidified incubator (5% CO2 at 37° C.). The AML −/− cell lines were cultured and maintained in DMEM supplemented with 15% (v/v) FBS and 1% (v/v) penicillin-streptomycin in a humidified incubator (5% CO2 at 37° C.). For hypoxia, cells were put into a Binder CB150 hypoxic chamber set at 1% 02 for the indicated time points
The stock concentration of CBD was made to 20 mM in dimethyl sulfoxide (DMSO). […] The final concentration of the DMSO in the cell culture medium was at a maximum level of 0.05% (v/v).
Cells were seeded in 60 mm plates and left to reach 100% confluency. Cells were then synchronised in 1% (v/v) FBS DMEM for 24 h and “wounded” with a pipette tip. Dead cells were removed with PBS wash and then subsequently replaced with DMEM (10% (v/v) FBS). Cells were pre-treated for 30 min with either rapamycin, c-MET or STAT3 inhibitors (where indicated) before cytokine stimulation. Pictures were taken before treatment and 12-18 h after treatment using an inverted AMG EVOS microscope equipped with an Olympus camera.

AML 621-101 cells = test: Matrigel cell invasion assay in AML 621-101 cells; assay type: cell-based; details: CBD at both 5 μM and 10 μM
Protocol: (i) Angiomyolipomas (AML) cells derived from a Tuberous Sclerosis Complex patient (621-101 cell-line), with a known loss of function of TSC2. […] Zeocin™ was purchased from LifeTechnologies (cat no: R25001) and was used to originally generate the stable cell line (by Prof. Lisa Henske) over two weeks of Zeocin™ selection and then for continued maintenance of the cells in tissue culture (at 100 μg/ml).
Tsc2−/− and Tsc2+/+ cell lines were cultured and maintained in DMEM supplemented with 10% (v/v) FBS and 1% (v/v) penicillin-streptomycin in a humidified incubator (5% CO2 at 37° C.). […]
Transwell permeable supports with 6.5 mm diameter inserts, 8.0 μm pore size, and a polycarbonate membrane were used to perform migration assays. […] Cells were counted using a haemocytometer. […] The percentage of adherent cells was then determined by fixing the cells with methanol and acetone (1:1) for 20 minutes at 20° C. […] Crystal Violet stained cells were eluted with 1% (w/v) SDS and the absorbance was read at 550 nm on a Genova MK3 Lifescience.
For invasion assays, a similar protocol was used; however, the top chamber of the Transwell was filled with […] of BD Matrigel Basement Membrane Matrix (1 mg/mL). […] The number of invaded cells was determined by fixation staining and elution of crystal violet with 1% (w/v) SDS, as before.

HIF-1α protein [2] = test: Western blot of hypoxia induced HIF-1α in Tsc2−/− MEFs; assay type: cell-based, mouse; details: CBD at 10 μM
Protocol: as §1
(§2) Cells were washed in Phosphate Buffered Saline (PBS) and then lysed directly in sample buffer (62.5 mM Tris HCL, 50 mM DTT, 2% SDS (w/v), 10% Glycerol (w/v), 0.1% Bromophenol blue (w/v) pH 7.6) and sonicated for 5×20 s cycles on full power (30 amplitude microns). Samples were boiled at 95° C. for 10 min. Lysates were resolved by SDS-PAGE and proteins were transferred to polyvinylidene difluoride membranes.
(§3) Membranes were blocked in 5% (w/v) dry milk powder dissolved in Tris-buffered saline containing 0.1% (v/v) Tween, then probed with primary antibody and horse radish peroxidase-conjugated secondary antibody. Proteins were visualized using Enhanced Chemiluminescent solution and Hyperfilm. Antibodies towards ribosomal protein S6 (rpS6), phospho-rpS6 (Ser235/236) were purchased from Cell Signaling Technology. Anti-HIF-1α was obtained from BD transduction laboratories. Statistical Analysis […]

HIF-1α protein [3] = test: Western blot of hypoxia induced HIF-1α in AML 621-101; assay type: cell-based; details: CBD at 10 μM
Protocol: as §1, §2, §3

pS6 positive cells = test: Number of pS6 positive cells in zebrafish model of TSC; assay type: in vivo; details: for effect on average number of pS6 positive cells: Danieau's incubated
From the text: A zebrafish model of TSC with a tsc2 gene deletion was used. This model has been previously published and validated (Kim et al. 2011). By mating the gene deletion animals with wild-type tsc2+/+ animals, heterozygote (tsc2+/−) zebrafish were also obtained and tested in this example.
For both pS6 and TUNEL staining, non-consecutive sections were imaged using a Zeiss AxioImager microscope. Exposure time was kept constant during image acquisition and determined by the observation of a slide where primary antibody or enzyme solution was omitted. Pictures were taken with a 20× objective, using the AxioVision software, and coloured using Fiji ImageJ. All counting and measuring of cells was done in the original black and white pictures.
Statistical analysis was performed in SPSS (IBM SPSS Statistics 22), except for the chi-square test, which was done using GraphPad Prism 5. Normality and sphericity were tested using the Kolmogorov-Smirnov and Mauchly's tests, respectively. Repeated measures two-way ANOVA tests were used to analyse the locomotor assay data and cell number, while a three-way ANOVA test was used to analyse cell size. Touch response (TR) between genotypes and treatments was analysed by chi-square test. Tests were followed by Tukey or Bonferroni post-hoc tests.
To explore mTOR pathway activation in the different genotypes and treatments, immunohistochemistry was performed using a pS6 (Ser235/236) antibody.
To better understand the apparent differences between groups, pS6 positive cells were counted for each genotype and treatment. A significant main effect of genotype was found, with tsc2−/− zebrafish sections showing more pS6 positive cells in the brain than tsc2+/+ and tsc2+/−(+173.3%) (FIG. 4A).

[4] = treatment resistant paediatric epilepsy; cited from earlier work

For `C=C(C)[C@@H]1CCC(C)=C[C@H]1c1c(O)cc(CCCCC)cc1O` [CBD, Cannabidiol], the “block of wound closure” value [1] was “as effective as rapamycin”, the cell invasion (AML 621-101 cells) was “significantly block” and the “hypoxia induced expression of HIF-1α protein” value (HIF-1α protein [2]) was “sufficient to block hypoxia induced expression of HIF-1α protein”. The “hypoxia induced expression of HIF-1α protein” value (HIF-1α protein [3]) was “sufficient to block hypoxia induced expression of HIF-1α protein”, the “change in average number of pS6 positive cells” value (“change in average number” below) (pS6 positive cells; main effect of treatment, compared to DMSO group, FIG. 4B) was −77.1% and the “change in average number” value (pS6 positive cells; main effect of treatment, compared to Danieau's group, FIG. 4B) was −63.2%. The “effect on average number of pS6 positive cells” value (pS6 positive cells; tsc2+/+ zebrafish) was “no significant effect”, the “effect on average number of pS6 positive cells” value (pS6 positive cells; tsc2+/− zebrafish) was “no significant effect” and the “change in average number” value (pS6 positive cells; tsc2−/− zebrafish, for the DMSO group, FIG. 4C) was −58.9%. For the same compound, the “change in average number” value (pS6 positive cells; tsc2−/− zebrafish, for the Danieau's group, FIG. 4C) was −55.4% and the seizure frequency [4] was “significant reductions in seizure frequency”.
